Measured values as given in ChEMBL document CHEMBL5543060, “Technologies of targeting histone deacetylase in drug discovery: Current progress and emerging prospects” (Eur J Med Chem, 2023).
pIC50: −log10 of the molar value. Values belong to the compound of their own block, whether it stands above or below them.

How the values were obtained:
[1] = biological target: von Hippel-Lindau disease tumor suppressor/Protein deacetylase HDAC6 (Homo sapiens, UniProt Q9UBN7+P40337); test: Protac activity at VHL/HDAC6 in human MDA-MB-468 cells assessed as HDAC6 degradation measured after 14 hrs by Western blot analysis; format: cell-based
[2] = biological target: T1, Protein deacetylase HDAC6 (Homo sapiens, UniProt Q9UBN7); test: Inhibition of human recombinant HDAC6 using fluorogenic HDAC substrate by fluorescence assay
T1 sequence (Q9UBN7 whole entry): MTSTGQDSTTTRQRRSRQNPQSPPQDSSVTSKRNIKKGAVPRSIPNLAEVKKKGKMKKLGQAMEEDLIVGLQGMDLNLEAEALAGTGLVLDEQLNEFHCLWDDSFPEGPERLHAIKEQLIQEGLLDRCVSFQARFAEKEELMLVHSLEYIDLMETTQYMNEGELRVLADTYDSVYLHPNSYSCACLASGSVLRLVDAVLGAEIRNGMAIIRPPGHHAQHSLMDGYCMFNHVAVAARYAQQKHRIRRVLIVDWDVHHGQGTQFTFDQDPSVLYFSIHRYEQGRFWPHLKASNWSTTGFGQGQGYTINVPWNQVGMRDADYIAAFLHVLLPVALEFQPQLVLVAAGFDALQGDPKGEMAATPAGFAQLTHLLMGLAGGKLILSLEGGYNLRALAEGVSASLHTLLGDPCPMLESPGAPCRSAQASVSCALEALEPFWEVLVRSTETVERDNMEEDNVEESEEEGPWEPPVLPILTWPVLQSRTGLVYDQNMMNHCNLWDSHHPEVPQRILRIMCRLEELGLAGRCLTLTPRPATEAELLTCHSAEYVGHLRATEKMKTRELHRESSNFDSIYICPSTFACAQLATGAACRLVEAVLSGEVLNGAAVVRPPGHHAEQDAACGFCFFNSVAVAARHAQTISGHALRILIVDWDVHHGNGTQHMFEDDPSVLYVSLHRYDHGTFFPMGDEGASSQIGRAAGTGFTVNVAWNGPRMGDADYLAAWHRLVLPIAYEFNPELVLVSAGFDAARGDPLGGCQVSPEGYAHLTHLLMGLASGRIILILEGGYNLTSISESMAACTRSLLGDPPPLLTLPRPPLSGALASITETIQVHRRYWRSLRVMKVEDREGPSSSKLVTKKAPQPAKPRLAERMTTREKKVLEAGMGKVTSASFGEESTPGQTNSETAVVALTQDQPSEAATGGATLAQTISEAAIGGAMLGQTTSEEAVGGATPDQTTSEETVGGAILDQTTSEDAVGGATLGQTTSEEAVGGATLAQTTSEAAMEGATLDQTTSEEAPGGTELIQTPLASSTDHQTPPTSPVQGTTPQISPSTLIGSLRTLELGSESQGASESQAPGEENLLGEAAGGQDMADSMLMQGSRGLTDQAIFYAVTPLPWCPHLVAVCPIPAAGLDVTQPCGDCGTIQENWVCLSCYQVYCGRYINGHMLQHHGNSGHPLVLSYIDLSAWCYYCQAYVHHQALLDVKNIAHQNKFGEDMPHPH

Histone deacetylase 8 [3] = biological target: T2, Histone deacetylase 8 (Homo sapiens, UniProt Q9BY41); test: Inhibition of human HDAC8 using Boc-Lys (Ac)-AMC as substrate incubated for 60 mins by fluorimetric assay
T2 sequence (Q9BY41 whole entry): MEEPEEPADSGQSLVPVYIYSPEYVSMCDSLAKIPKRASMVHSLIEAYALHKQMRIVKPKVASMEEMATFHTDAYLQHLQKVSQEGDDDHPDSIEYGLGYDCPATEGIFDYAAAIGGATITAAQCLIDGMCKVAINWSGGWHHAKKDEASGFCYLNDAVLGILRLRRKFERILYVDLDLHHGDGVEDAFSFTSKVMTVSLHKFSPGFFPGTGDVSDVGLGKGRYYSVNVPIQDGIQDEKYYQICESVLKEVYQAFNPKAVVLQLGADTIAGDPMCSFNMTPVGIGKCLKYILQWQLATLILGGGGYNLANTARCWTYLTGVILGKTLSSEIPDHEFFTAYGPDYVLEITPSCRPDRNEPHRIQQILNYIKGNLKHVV

Histone deacetylase 1 [4] = biological target: T3, Histone deacetylase 1 (Homo sapiens, UniProt Q13547); test: Inhibition of HDAC1 (unknown origin) using ZMAL (Z-Lys(Ac)-AMC as fluorogenic substrate pre-incubated for 30 mins measured for 1 hr by fluorescence based analysis
Histone deacetylase 1 [5] = biological target: T3, Histone deacetylase 1; test: Inhibition of human recombinant HDAC1 using Ac-RHKK(Acetyl)-AMC peptide as fluorogenic substrate pre-incubated for 30 mins followed by substrate addition and measured for 60 mins by fluorescence based analysis
Histone deacetylase 2 = Histone deacetylase 2 (Homo sapiens, UniProt Q92769); test: Inhibition of human recombinant HDAC2 using Ac-RHKK(Acetyl)-AMC peptide as fluorogenic substrate pre-incubated for 30 mins followed by substrate addition and measured for 60 mins by fluorescence based analysis
Histone deacetylase 8 [6] = biological target: T2, Histone deacetylase 8; test: Inhibition of HDAC8 (unknown origin) using Fluoro-Substrate Peptide as substrate by fluorescence based assay
[7] = biological target: Cyclin-dependent kinase 4 (Homo sapiens, UniProt P11802); test: Inhibition of CDK4 (unknown origin)
[8] = biological target: T4, Bromodomain-containing protein 4 (Homo sapiens, UniProt O60885); test: Inhibition of BRD4 BD1 (unknown origin) incubated for 15 mins by TR-FRET analysis
[9] = biological target: T4, Bromodomain-containing protein 4; test: Inhibition of BRD4 BD2 (unknown origin) by TR-FRET assay
Histone deacetylase 1 [10] = biological target: T3, Histone deacetylase 1; test: Inhibition of HDAC1 (unknown origin) by fluorescence based assay
[11] = biological target: T5, Protein cereblon/Histone deacetylase 8 (Homo sapiens, UniProt Q9BY41+Q96SW2); test: PROTAC activity at HDAC8/CRBN in human HCT-116 cells assessed as degradation of HDAC8 measured after 10 hrs in presence of E3 ligase inhibitor by Western blot analysis; format: cell-based
[12] = Metabolic stability in human Hepatocyte assessed as half life by LC-MS/MS analysis; format: ADME, cell-based; settings: hepatocytes
Histone deacetylase 1 [13] = biological target: T3, Histone deacetylase 1; test: Inhibition of HDAC1 (unknown origin)
[14] = biological target: T6, Vascular endothelial growth factor receptor 2 (Homo sapiens, UniProt P35968); test: Inhibition of VEGFR2 (unknown origin) expressed in baculovirus infected insect cells using biotinylated-GGGGQDGKDYIVLPI peptide as substrate incubated for 1 to 4 hrs by TR-FRET assay
[15] = biological target: T1, Protein deacetylase HDAC6; test: Inhibition of HDAC6 (unknown origin) using Ac-peptide as substrate preincubated for 15 mins followed by substrate addition and measured after 1 hr by fluorescence based assay
[16] = biological target: von Hippel-Lindau disease tumor suppressor/Histone deacetylase 1 (Homo sapiens, UniProt Q13547+P40337); test: PROTAC activity at VHL/HDAC1 in human ES1 cells assessed as HDAC1 degradation by fluorescence based assay; format: cell-based
[17] = biological target: von Hippel-Lindau disease tumor suppressor/Histone deacetylase 2 (Homo sapiens, UniProt Q92769+P40337); test: PROTAC activity at VHL/HDAC2 in human ES1 cells assessed as HDAC2 degradation by fluorescence based assay; format: cell-based
[18] = biological target: T1, Protein deacetylase HDAC6; test: Inhibition of HDAC6 (unknown origin)
Histone deacetylase 3 [19] = biological target: T7, Histone deacetylase 3 (Homo sapiens, UniProt O15379); test: Inhibition of HDAC3 (unknown origin)
Histone deacetylase 1 [20] = biological target: T3, Histone deacetylase 1; test: Inhibition of human recombinant HDAC1 using fluorogenic substrate incubated for 30 mins by fluorescence based assay
[21] = biological target: T6, Vascular endothelial growth factor receptor 2; test: Inhibition of VEGFR2 (unknown origin) using poly (Glu,Tyr) 4:1 as substrate measured after 1 hr in presence of ATP by spectrophotometric analysis
[22] = biological target: Vascular endothelial growth factor receptor 1 (Homo sapiens, UniProt P17948); test: Inhibition of VEGFR1 (unknown origin)
[23] = biological target: T1, Protein deacetylase HDAC6; test: Inhibition of HDAC6 (unknown origin) using biotinylated histone H3 KAc peptide (1 to 21 residues) as substrate by HTRF assay
Histone deacetylase 3 [24] = biological target: T7, Histone deacetylase 3; test: Inhibition of HDAC3 (unknown origin) using biotinylated histone H3 KAc peptide as substrate pretreated with compound for 1 hrs followed by substrate addition measured after 1 hrs by microplate reader analysis by HTRF assay
[25] = biological target: T5, Protein cereblon/Histone deacetylase 8; test: PROTAC activity at HDAC8/CRBN in human HCT-116 cells assessed as degradation of HDAC8 by Western blot analysis; format: cell-based
Histone deacetylase 3 [26] = biological target: T7, Histone deacetylase 3; test: Inhibition of HDAC3 (unknown origin) at 10 uM relative to control
Homo sapiens = species on record: Homo sapiens; test: Inhibition of Topoisomerase 2 (unknown origin) at 50 to 100 uM incubated for 15 mins in the presence of ATP by electrophoretic analysis; settings: dose 50-100 µM
Histone deacetylase 8 [27] = biological target: T2, Histone deacetylase 8; test: Inhibition of human recombinant His-tagged HDAC8 expressed in Escherichia coli BL21 (DE3) using ArgHisLysLys(Ac) as substrate pre-incubated for 1 hr and measured after 1 hr by fluorescence based analysis
[28] = biological target: Protein cereblon/Histone deacetylase 3 (Homo sapiens, UniProt O15379+Q96SW2); test: Protac activity at CRBN/HDAC3 in human MDA-MB-468 cells assessed as HDAC3 degradation measured after 14 hrs by Western blot analysis; format: cell-based

T3 sequence (Q13547 whole entry): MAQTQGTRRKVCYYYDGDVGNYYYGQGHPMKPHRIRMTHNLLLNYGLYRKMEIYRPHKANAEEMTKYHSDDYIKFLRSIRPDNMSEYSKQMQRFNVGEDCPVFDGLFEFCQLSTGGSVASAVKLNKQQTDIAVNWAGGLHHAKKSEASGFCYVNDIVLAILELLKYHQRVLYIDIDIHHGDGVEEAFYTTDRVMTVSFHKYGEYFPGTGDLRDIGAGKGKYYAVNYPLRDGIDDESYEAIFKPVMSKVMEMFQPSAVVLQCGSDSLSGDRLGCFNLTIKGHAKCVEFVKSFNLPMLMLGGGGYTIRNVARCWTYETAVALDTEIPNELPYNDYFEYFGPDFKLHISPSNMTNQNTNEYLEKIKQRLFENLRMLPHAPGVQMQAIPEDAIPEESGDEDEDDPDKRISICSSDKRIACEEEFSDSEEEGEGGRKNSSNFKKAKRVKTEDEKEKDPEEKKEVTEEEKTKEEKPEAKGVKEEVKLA
von Hippel-Lindau disease tumor suppressor/Histone deacetylase 1, sequence (Q13547 whole entry): as above
von Hippel-Lindau disease tumor suppressor/Histone deacetylase 1, sequence (P40337 whole entry): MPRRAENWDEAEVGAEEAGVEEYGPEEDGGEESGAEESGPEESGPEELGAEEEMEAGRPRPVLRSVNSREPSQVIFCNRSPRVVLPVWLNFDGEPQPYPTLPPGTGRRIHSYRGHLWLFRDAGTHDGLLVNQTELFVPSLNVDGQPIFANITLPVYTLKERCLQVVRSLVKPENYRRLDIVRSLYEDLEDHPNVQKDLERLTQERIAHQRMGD
T7 sequence (O15379 whole entry): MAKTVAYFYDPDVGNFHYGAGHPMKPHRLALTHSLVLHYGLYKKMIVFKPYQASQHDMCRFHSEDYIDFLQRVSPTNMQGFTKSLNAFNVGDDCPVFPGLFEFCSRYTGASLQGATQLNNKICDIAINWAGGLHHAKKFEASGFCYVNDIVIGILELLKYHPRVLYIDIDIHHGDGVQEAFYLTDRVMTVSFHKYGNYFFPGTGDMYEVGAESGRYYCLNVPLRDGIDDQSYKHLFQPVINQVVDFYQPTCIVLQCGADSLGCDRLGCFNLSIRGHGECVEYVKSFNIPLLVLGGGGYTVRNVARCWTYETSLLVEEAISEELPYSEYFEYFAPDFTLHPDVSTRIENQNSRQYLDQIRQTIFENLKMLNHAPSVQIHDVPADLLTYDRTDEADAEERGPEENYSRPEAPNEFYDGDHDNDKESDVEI
von Hippel-Lindau disease tumor suppressor/Histone deacetylase 2, sequence (Q92769 whole entry): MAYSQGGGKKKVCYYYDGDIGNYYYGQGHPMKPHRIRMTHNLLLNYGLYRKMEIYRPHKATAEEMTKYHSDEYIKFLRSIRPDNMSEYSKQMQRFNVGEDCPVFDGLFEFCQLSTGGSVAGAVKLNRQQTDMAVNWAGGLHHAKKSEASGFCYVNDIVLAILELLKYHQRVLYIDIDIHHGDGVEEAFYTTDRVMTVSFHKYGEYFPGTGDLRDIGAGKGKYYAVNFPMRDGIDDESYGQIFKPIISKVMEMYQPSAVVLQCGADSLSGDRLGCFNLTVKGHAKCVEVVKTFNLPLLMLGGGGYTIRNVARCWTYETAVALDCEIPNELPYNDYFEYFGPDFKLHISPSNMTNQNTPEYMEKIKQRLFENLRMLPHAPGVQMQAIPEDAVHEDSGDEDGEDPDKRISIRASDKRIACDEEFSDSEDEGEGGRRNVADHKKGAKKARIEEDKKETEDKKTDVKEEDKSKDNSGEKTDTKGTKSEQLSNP
von Hippel-Lindau disease tumor suppressor/Histone deacetylase 2, sequence (P40337 whole entry): as the sequence (P40337 whole entry) above
von Hippel-Lindau disease tumor suppressor/Protein deacetylase HDAC6, sequence (P40337 whole entry, one chain of several): as the sequence (P40337 whole entry) above
T6 sequence (P35968 whole entry): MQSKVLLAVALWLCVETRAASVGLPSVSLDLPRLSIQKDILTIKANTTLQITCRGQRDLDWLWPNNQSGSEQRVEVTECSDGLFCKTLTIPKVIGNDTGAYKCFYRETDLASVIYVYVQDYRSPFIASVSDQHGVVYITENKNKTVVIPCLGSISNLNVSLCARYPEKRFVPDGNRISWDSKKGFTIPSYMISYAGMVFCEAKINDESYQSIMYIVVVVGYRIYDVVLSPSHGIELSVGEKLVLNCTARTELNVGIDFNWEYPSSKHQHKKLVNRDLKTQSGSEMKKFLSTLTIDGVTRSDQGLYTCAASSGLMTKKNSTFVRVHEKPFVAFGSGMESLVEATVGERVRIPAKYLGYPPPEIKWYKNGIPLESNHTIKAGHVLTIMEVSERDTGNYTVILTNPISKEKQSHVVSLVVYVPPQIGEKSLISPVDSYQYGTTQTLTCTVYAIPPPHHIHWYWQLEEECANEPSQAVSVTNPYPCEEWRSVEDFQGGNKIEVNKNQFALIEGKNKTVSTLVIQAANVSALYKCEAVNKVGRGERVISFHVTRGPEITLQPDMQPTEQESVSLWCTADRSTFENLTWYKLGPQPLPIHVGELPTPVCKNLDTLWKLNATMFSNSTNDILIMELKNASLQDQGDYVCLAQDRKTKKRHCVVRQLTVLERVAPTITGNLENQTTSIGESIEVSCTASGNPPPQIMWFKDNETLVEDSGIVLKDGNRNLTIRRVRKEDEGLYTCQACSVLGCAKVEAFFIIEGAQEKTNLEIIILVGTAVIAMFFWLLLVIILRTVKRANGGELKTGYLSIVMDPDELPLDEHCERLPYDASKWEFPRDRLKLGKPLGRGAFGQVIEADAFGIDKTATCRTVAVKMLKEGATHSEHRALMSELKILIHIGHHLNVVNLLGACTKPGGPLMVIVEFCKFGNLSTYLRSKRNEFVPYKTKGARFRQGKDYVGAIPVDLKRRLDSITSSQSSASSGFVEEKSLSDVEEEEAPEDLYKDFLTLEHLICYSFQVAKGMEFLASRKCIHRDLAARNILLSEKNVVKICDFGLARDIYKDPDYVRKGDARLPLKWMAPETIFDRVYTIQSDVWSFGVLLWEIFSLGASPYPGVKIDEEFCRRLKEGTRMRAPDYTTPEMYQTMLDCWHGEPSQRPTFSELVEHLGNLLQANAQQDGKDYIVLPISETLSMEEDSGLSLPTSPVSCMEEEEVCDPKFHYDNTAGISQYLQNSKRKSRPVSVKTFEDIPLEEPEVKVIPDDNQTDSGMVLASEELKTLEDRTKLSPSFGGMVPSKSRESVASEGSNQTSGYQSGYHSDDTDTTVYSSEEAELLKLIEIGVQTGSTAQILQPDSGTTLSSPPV
T5 sequence (Q96SW2 whole entry, one chain of several): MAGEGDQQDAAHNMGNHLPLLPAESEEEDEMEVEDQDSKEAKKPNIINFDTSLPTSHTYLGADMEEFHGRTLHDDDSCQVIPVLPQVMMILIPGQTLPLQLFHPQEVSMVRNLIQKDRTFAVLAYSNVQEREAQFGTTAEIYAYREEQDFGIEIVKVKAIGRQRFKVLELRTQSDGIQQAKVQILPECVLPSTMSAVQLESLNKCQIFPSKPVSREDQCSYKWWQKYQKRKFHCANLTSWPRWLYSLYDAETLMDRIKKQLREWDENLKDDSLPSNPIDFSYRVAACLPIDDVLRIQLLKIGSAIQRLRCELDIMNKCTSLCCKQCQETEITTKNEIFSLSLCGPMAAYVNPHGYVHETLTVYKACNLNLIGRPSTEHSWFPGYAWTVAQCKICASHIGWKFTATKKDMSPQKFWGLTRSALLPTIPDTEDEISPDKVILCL
Histone deacetylase 2, sequence (Q92769 whole entry): as the sequence (Q92769 whole entry) above

DC50 [1]: 686 nM
Structure (SMILES): Cc1ncsc1-c1ccc([C@H](C)NC(=O)[C@@H]2C[C@@H](O)CN2C(=O)[C@@H](NC(=O)COCCOCCOCC(=O)NCc2cccc(CNc3ncc(-c4nnc(C(F)F)o4)cn3)c2)C(C)(C)C)cc1

pIC50 [2]: 7.82
pIC50 (Histone deacetylase 1 [4]): 6.13
Structure (SMILES): O=C(Cc1ccc(C(=O)NO)cc1)Nc1ccc2ncnc(Nc3ccc(Br)c(F)c3)c2c1

pIC50 (Histone deacetylase 1 [5]): 8.70
pIC50 (Histone deacetylase 2): 8.40
pIC50 (Histone deacetylase 8 [6]): 8.40
Structure (SMILES): COc1ccc(-c2ccc3c(NC(=O)CCCCCCC(=O)NO)n[nH]c3c2)cc1

DC50 [11]: 250 nM
Structure (SMILES): COc1ccc(C(=O)NO)cc1NCc1ccc(OCc2cn(CCCCCNc3cccc4c3C(=O)N(C3CCC(=O)NC3=O)C4=O)nn2)cc1 (configuration not stated)

pIC50 [15]: < 7.30
Structure (SMILES): CCCNNC(=O)/C=C/c1ccc(CNCCc2c(C)[nH]c3ccccc23)cc1

DC50 [16]: 650 nM
DC50 [17]: 2000 nM
Structure (SMILES): CCCNNC(=O)c1ccc(-c2ccc(NC(=O)CCCCCCC(=O)N[C@H](C(=O)N3C[C@H](O)C[C@H]3C(=O)N[C@@H](C)c3ccc(-c4scnc4C)cc3)C(C)(C)C)cc2)cc1

half-life [12]: < 15 min
pIC50 (Histone deacetylase 1 [20]): 6.92
pIC50 [21]: 7.80
pIC50 [22]: 7.74
pIC50 [23]: 7.03
Structure (SMILES): Cc1c2ccc(N(C)c3ccnc(Nc4ccc(NC(=O)CCCCCCC(=O)NO)cc4)n3)cc2nn1C

pIC50 [2]: 8.52
pIC50 (Histone deacetylase 1 [4]): 6.99
Structure (SMILES): Cc1ccccc1/C=C/C(=O)Nc1ccc(C(=O)NS(=O)(=O)c2ccc(NCCCCCCC(=O)NO)c([N+](=O)[O-])c2)c(Oc2ccccc2)c1

DC50 [25]: 53 nM
Structure (SMILES): O=C1CCC(N2C(=O)c3cccc(NCCCCCCCCCCCNC(=O)Nc4cccc(SCc5cn(-c6cccc(C(=O)NO)c6)nn5)c4)c3C2=O)C(=O)N1 (configuration not stated)

DC50 [1]: 27 nM
DC50 [16]: 174 nM
DC50 [17]: 248 nM
DC50 [28]: 139 nM
Structure (SMILES): O=C(CCCCCCNC(=O)c1ccc(NC(=O)COCCOCCNC(=O)COc2cccc3c2C(=O)N(C2CCC(=O)NC2=O)C3=O)cc1)NO (configuration not stated)

DC50 [16]: 17000 nM
Structure (SMILES): Cc1ncsc1-c1ccc(CNC(=O)[C@@H]2C[C@@H](O)CN2C(=O)[C@@H](NC(=O)CCCCCCCCCCC(=O)Nc2ccc(C(=O)Nc3ccccc3N)cc2)C(C)(C)C)cc1

The next lines start with the compound.

Structure (SMILES): O=C(COc1ccc2c(c1)OC1(CCN(Cc3cc(Cl)cc(Cl)c3)CC1)CC2=O)NO
pIC50 [2]: 7.10
pIC50 (Histone deacetylase 8 [3]): 5.10

Structure (SMILES): O=C(CCCCCCN1CCN(c2ccc(Nc3ncc(F)c(-c4cn(C5CCCC5)nn4)n3)cc2)CC1)NO
pIC50 [7]: 7.64

Structure (SMILES): Cc1sc2c(c1C)C(c1ccc(Cl)cc1)=N[C@@H](CC(=O)Nc1ccc(C(=O)Nc3ccccc3[N+](=O)[O-])cc1)c1nnc(C)n1-2
pIC50 [8]: 6.14
pIC50 [9]: 7.13
pIC50 (Histone deacetylase 1 [10]): 6.54

Structure (SMILES): O=C(COc1ccc2c(c1)OC1(CCN(Cc3cc(F)cc(F)c3)CC1)CC2=O)NO
pIC50 [2]: 7.10
pIC50 (Histone deacetylase 8 [3]): 5.05

Structure (SMILES): CCCNNC(=O)c1ccc(Nc2nccc(N(C)c3ccc4c(C)n(C)nc4c3)n2)cc1
half-life [12]: < 15 min
pIC50 (Histone deacetylase 1 [13]): 6.38
pIC50 [14]: 7.60

Structure (SMILES): O=C(CS)Nc1ccc(Cn2c3c(c4ccccc42)CS(=O)(=O)CC3)cc1
pIC50 [18]: 6.89

Structure (SMILES): Nc1ccccc1NC(=O)Cc1ccc2ncccc2c1
pIC50 (Histone deacetylase 3 [19]): 6.25

Structure (SMILES): CN(c1ccccc1)c1ncc(NC(=O)CS)cn1
pIC50 [2]: 7.14
pIC50 (Histone deacetylase 1 [4]): 5.70

Structure (SMILES): O=C(Cc1ccc2ncccc2c1)Nc1ccccc1O
pIC50 (Histone deacetylase 3 [24]): 5.70

Structure (SMILES): O=C(/C=C/c1ccc(CSc2nc3[nH]ncc3c(=O)n2-c2ccccc2)cc1)NO
inhibition (Histone deacetylase 3 [26]): 88%
inhibition (Homo sapiens): 82.1%

Structure (SMILES): O=C(CCCN1CCN(C(=O)Nc2ccnc3ccccc23)CC1)NO
pIC50 (Histone deacetylase 8 [27]): 5.70
